Test [1] addresses T1, human LXRα-LBD (Homo sapiens, UniProt Q13133).
T1 construct: Purified human LXRα-LBD (GST); purchased Life Technologies
T1 sequence (Q13133 209-447 limits assumed): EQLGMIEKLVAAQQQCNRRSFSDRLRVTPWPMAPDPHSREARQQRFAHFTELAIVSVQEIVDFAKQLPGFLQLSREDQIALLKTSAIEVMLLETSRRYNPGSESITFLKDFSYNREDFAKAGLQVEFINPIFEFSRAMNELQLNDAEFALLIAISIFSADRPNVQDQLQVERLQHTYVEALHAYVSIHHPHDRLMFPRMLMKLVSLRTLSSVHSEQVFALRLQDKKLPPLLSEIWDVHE
Description: Lantha Screen TR-FRET NR-cofactor peptide interaction assay. Type of test: biochemical. As for the experimental part: Biochemical NR—Cofactor Peptide Interaction Assay (TR-FRET) Assay (Life Technologies kit). Purified human LXRα-LBD (GST), LXRβ-LBD (GST), fluoroscein (FL)-labeled peptides, terbium (TB)-labeled anti-GST tag antibody, and all buffers were purchased from Life Technologies. All LXR assays were conducted in 384-well black medium-binding polystyrene assay plates (Greiner Bio-One). Test compound stock solutions and subsequent serial dilutions were prepared at 100× the final concentration in DMSO, and then were diluted to the final assay concentration of 2× in assay buffer and dispensed into assay plates. LXR-LBDs were added to assay plates and then a mixture of FL-peptide/TB-anti-GST was added to each well containing either a test compound or DMSO control for final concentrations of 2.5 nM LXRα-LBD, 5 nM LXRβ-LBD, 10 nM TB-anti-GST, and 250 nM FL-peptide. Assay plates were protected from light and incubated with gentle shaking for 3.5 hours at room temperature. The TR-FRET ratio (520 nm/492 nm) of each assay well was measured using the Perkin Elmer EnVision plate reader. An excitation filter at 340 nm was used to excite the TB-anti-GST and emission filters 492 nm and 520 nm were used to detect terbium and fluorescein emission signals respectively. A delay of 100 μs followed by a 200 μs integration time was used to collect the time-resolved emission signals.
The assay is identical except we use His-tagged LXR (made in house) and TB-labeled anti-His antibody (Life Technologies). FL-labeled peptides (Life Technologies) are: • NCOR-ID1 NCOR-ID2 SMRT SRC1-2 SRC2-3 TRAP/DRIP

In test [2] the test system is lung and breast tumor bearing mice. Description: Tumor specific immune response in tumor bearing mice (FIG. 1B). The format is in vivo.
Test [3] deals with dendritic cell. Description: Cultured dendritic cell chemokine expression (FIG. 1A). Type of test: cell-based. Conditions: cultured dendritic cells.

These results are taken from patent US11746097B2, “LXR inverse agonists for treatment of cancer” (Saint Louis University, priority 2016, dated 2023).

With `Cc1cc(C)c(S(=O)(=O)N2Cc3ccc(-c4cccc(S(C)(=O)=O)c4)cc3CC2C(=O)NCc2cccc(C#N)c2)c(C)c1` (stereo not shown) [Compound 12], the midpoint of inhibition in test [1], the IC50, lay at 0.02 µM.
On to `O=C(Nc1ccc2cc(Br)ccc2n1)c1cccc(Cl)c1` [Compound 113], for which the IC50 – broadly, the concentration that inhibits the measured activity by half – in test [1] amounted to 5.2 µM.
As for `Cc1cc(C)c(S(=O)(=O)N2Cc3ccc(-c4cccc(S(C)(=O)=O)c4)cc3CC2C(=O)NCCc2cccc(C#N)c2)c(C)c1` (stereo not shown) [Compound 14], half-maximal inhibition in test [1] (IC50) was put at 2.1 µM.
In test [1], `Cc1cc(C)c(S(=O)(=O)N2Cc3ccc(-c4cccc(S(C)(=O)=O)c4)cc3CC2C(=O)NCc2ccc(C#N)cc2)c(C)c1` (stereo not shown) [Compound 5, N-(4-cyanobenzyl)-2-(mesitylsulfonyl)-6-(3-(methylsulfonyl)phenyl)-1,2,3,4 tetrahydroisoquinoline-3-carboxamide] registered a 50% inhibitory concentration (IC50) of 8.3 µM.
`Cc1cc(C)c(S(=O)(=O)N2Cc3ccccc3CC2C(=O)NCCc2cccc(C#N)c2)c(C)c1` (stereo not shown) [Compound 38] gave an IC50 in test [1] of 0.661 µM. Against the preceding molecule, the IC50 is about 13-fold lower.
Take `Cc1cc(C)c(S(=O)(=O)N(CCc2cccc(Br)c2)Cc2ccc(-c3cccc(S(C)(=O)=O)c3)cc2)c(C)c1` [SR9243]: in test [2], the “cytotoxic T-cell activity” value is “induces” and the dendritic cell activity entry is listed as “induces”. For the same molecule, in test [3], the “inhibition of dendritic cell chemokine expression by LXR agonists and tumor specific LXR ligands” value is “disrupted”.
In turn, `COc1ccc(-c2ccc3nc(NS(=O)(=O)c4c(C)cc(C)cc4C)ccc3c2)cc1` [Compound 104] yielded an IC50 in test [1] of 4.3 µM. In other words, the single-digit micromolar range.
The same measure, in the same setting: the figure for `COC(=O)C1Cc2cc(-c3cccc(S(C)(=O)=O)c3)ccc2CN1S(=O)(=O)c1c(C)cc(C)cc1C` (stereo not shown) [Compound 3, methyl 2-(mesitylsulfonyl)-6-(3-(methylsulfonyl)phenyl)-1,2,3,4-tetrahydroisoquinoline-3-carboxylate] is 5 µM.
